Results taken from PubChem BioAssay AID179 (DTP/NCI, 2004).
The source made the active and inactive calls.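 How the source made its calls: active means compounds giving half or more protection of infected cells from virus-caused growth loss, again on retest; inactive means the rest.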 Where a SMILES comes first, the peptide text is derived from it. [ ]: non-standard residue; d: D form. The star is where a group is joined. ξ: configuration not given here. Boc = CC(C)(C)OC(=O)*; ξV = CC(C)C(N)C(=O)O; OBn = c1ccc(CO*)cc1

Tested on: CEM cells HIV-1 protection, formazan growth assay
Assay: NCI AIDS Antiviral Assay
Conditions: for IC50: measured here: growth of uninfected CEM cells
Method in brief: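 Screen of anti-HIV-1 activity in human CEM cells using a formazan-based growth measurement at five drug concentrations. Hits with 50% or greater protection were repeated, and confirmation required reproducible complete protection.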

| SMILES | EC50 [µM] | IC50 [µM] | outcome |
| --- | --- | --- | --- |
| COc1cccc2c1C(c1ccc3ccccc3c1)OC2=O (stereo unspecified) | > 46.8 | 25.1 |  |
| O=C(Nc1ccccc1)c1cc(S(=O)(=O)NC2=NC(c3ccccc3)c3cc(Cl)ccc3N2)c(SSc2cc(Cl)c(C(=O)Nc3ccccc3)cc2S(=O)(=O)NC2=NC(c3ccccc3)c3cc(Cl)ccc3N2)cc1Cl (stereo unspecified) | > 200 | > 200 |  |
| CCOC(=O)/C(=C/c1ccc(Br)cc1)C(=O)c1ccccc1 | > 10.5 | > 10.5 |  |
| c1ccc2c(c1)nc1n2C2CCC(C2)N1 (stereo unspecified) | > 200 | > 200 |  |
| O=C(O)Cc1cccc2c1OC(c1ccccc1)C(C(=O)c1ccccc1)C2=O (stereo unspecified) | > 200 | 75.9 |  |
| COP(=O)(OC)C1=c2c(C)noc2=C2C=COC2C1=O (stereo unspecified) | > 200 | > 200 |  |
| C=CCC1(O)C(=O)OC2C(O)COC21O (stereo unspecified) | > 200 | > 200 |  |
| CC1CCCCc2nc3c(c(=O)n21)CCCC3 (stereo unspecified) | > 562 | 347 |  |
| CCOc1ccc(-n2c(=O)c3nn4c(=O)n(-c5ccc(OCC)cc5)c(=O)c4nn3c2=O)cc1 | > 200 | > 200 |  |
| C(=NCCN=Cc1cccc2ccccc12)c1cccc2ccccc12 |  |  | inactive |
| [O-]c1c2cc(-[n+]3c(-c4ccccc4)cc(-c4ccccc4)cc3-c3ccccc3)cc1CO[C@@H](c1ccccc1)[C@H](c1ccccc1)OCCOCCO[C@@H](c1ccccc1)[C@H](c1ccccc1)OC2 | > 2 | 0.105 |  |
| CCCCc1ccc(Nc2nc3c(ncn3C3CC(O)C(CN=[N+]=[N-])O3)c(=O)[nH]2)cc1 (stereo unspecified) | > 200 | > 200 |  |
| CCOC(=O)/C(C1=N[C@H](C(=O)OCC)CS1)=C(\O)c1ccccc1 | > 145 | > 145 |  |
| CC(C)C(NC(=O)OC(C)(C)C)C(=O)NCC(=O)OCc1ccccc1 (stereo unspecified) (Boc-[ξV]-Gly-OBn) | > 200 | 28.2 |  |
| O=S(=O)(O)c1cc(N=Nc2ccc(/C=C/c3ccc(N=Nc4cc(S(=O)(=O)O)c5cccnc5c4O)cc3S(=O)(=O)O)c(S(=O)(=O)O)c2)ccc1/C=C/c1ccc(N=Nc2cc(S(=O)(=O)O)c3cccnc3c2O)cc1S(=O)(=O)O | 0.832 | 1.95 |  |
| O=C1Nc2n[nH]c(=S)n2NC12c1ccccc1-c1ccccc12 | > 200 | > 100 |  |
| Cc1cc(NC(=O)Nc2ccc(N=Nc3cc(S(=O)(=O)O)c4cccc(S(=O)(=O)O)c4c3)c(C)c2)ccc1N=Nc1cc(S(=O)(=O)O)c2cccc(S(=O)(=O)O)c2c1 | 20 | > 100 |  |
| COc1cc(OC)c2nc3occc3c(OC)c2c1 | > 363 | 58.9 |  |
| c1ccc(CN(Cc2ccccn2)Cc2ccccn2)cc1 |  |  | inactive |
| C=C(CCCC(C)OCOCCOC)[Si](C)(C)C (stereo unspecified) | > 95.5 | > 95.5 |  |
| Cc1nc(Nc2ccc(Cl)cc2)sc1C(=O)NNC(=O)C(=O)NN | > 19.5 | > 19.5 |  |

| SMILES | EC50 [µM] | IC50 [µM] | outcome |
| --- | --- | --- | --- |
| CC(C)(C)[Si](C)(C)OC1C(n2ccc(=O)[nH]c2=O)OC(COC(c2ccccc2)(c2ccccc2)c2ccccc2)C1(CC#N)Sc1ccccc1 (stereo unspecified) | > 200 | > 200 |  |
| CC12C(C(=O)O)C1(c1ccccc1)C2C(=O)O (stereo unspecified) | > 1070 | > 1070 |  |
| Cc1nn(C(=O)c2c(O)cccc2Br)c(C)c1N=Nc1ccccc1 |  |  | inactive |
| CC(=O)C(=[N+]=[N-])C(=O)OCCOC(=O)C(=[N+]=[N-])C(C)=O | > 200 | > 200 |  |
| CN(C)C=Nc1c2c(nc3ccccc13)CCCC2 | > 200 | > 200 |  |
| CC(=O)O[C@@H]1CC[C@]2(C)C3CC[C@]4(C)C(C(C)CCc5nc6ccccc6n5C(C)=O)CCC4C3[C@H](OC(C)=O)C[C@@H]2C1 (stereo partly specified) | > 50.1 | 3.16 |  |
| CCOC(=O)C1C(c2ccc(Cl)cc2Cl)NC(c2ccc(C)cc2)C(C(=O)OC)S1(=O)=O (stereo unspecified) | > 14.5 | > 14.5 |  |
| O=C(O)c1cscc1Cc1cccs1 | > 200 | > 200 |  |
| FC1(F)SC2C3CCC(C3)C2C1(F)F (stereo unspecified) |  |  | inactive |
| COc1ccc(NC(=O)C/C(C)=N\N=C(N)N)c([N+](=O)[O-])c1 | > 115 | > 115 |  |
| O=C(Nc1nc(=S)c2c(ncn2CCOC(=O)c2ccccc2)[nH]1)c1ccccc1 | > 61.7 | > 61.7 |  |
| Cn1c(=O)c2nc(N3CCCCC3)cnc2n(C)c1=O | > 200 | > 200 |  |
| CN(C(=O)c1cc2c(s1)sc1c(=O)n(C)c3ccccc3c12)c1ccccc1 | > 200 | 2.95 |  |
| COc1ccc2nc3cc(Cl)ccc3c(Sc3ccc([N+](=O)[O-])cc3)c2c1 | > 4.79 | > 4.79 |  |
| CNC(=O)C1(C#N)C(c2ccccc2)C(C#N)(C(=O)NC)C1c1ccccc1 (stereo unspecified) | > 200 | 166 |  |
| [N-]=[N+]=Nc1ccccc1-[n+]1noc([O-])c1Br | > 457 | > 457 |  |
| CC[C@@]1(O)C(=O)OCc2c1cc1n(c2=O)Cc2cc3ccccc3nc2-1 | > 0.1 | 0.0162 |  |
| Cn1c(N2CCCC2)c(C=O)c(=O)n(C)c1=O |  |  | inactive |
| O=C1c2ccccc2C(=O)c2c1nc1sccn21 | > 200 | 32.4 |  |
| CCC1(CC)C(=O)NN(C(=O)c2ccc(Cl)cc2)C1=O | > 200 | > 200 |  |
| O=C(Nc1ccccc1)c1cc2cc(N=Nc3ccc(Br)cc3)ccc2oc1=O |  |  | inactive |

| SMILES | EC50 [µM] | IC50 [µM] | outcome |
| --- | --- | --- | --- |
| CCOc1ccc(N=Nc2ccc3cc(/C(C)=N/NC(=O)/C(C#N)=C\c4ccc(N(CCC#N)CCC#N)cc4)c(=O)oc3c2)cc1 | > 200 | > 200 |  |
| N#CCCN(CCN(CCN(C(=O)Nc1ccccc1)c1ccccc1)C(=O)Nc1ccccc1)C(=O)Nc1ccccc1 | > 200 | 9.33 |  |
| CC(C)S(=O)(=O)n1c(N)nc2ccc(/C(=N/O)c3ccccc3)cc21 | 5.01 | 9.77 |  |
| COC(=O)C(C(=O)C(=O)Nc1ccc(C)cc1)c1nc2ccc([N+](=O)[O-])cc2[nH]c1=O (stereo unspecified) | > 44.7 | > 44.7 |  |
| CC1(C)OC2[C@@H](CO[C@@]3([C@H]4OC(C)(C)O[C@@H]4CO)OC(C)(C)O[C@@H]23)O1 (stereo partly specified) | > 200 | > 200 |  |
| CC(C)COC(=O)NC1C(=O)N2C1SC(C)(C)C2C(=O)O (stereo unspecified) (tested in a mixture with another compound) | 87.1 | > 200 |  |
| COC(=O)C(C)(NC(=O)C(CC(=O)OC(C)(C)C)NC(=O)OC(C)(C)C)c1ccccc1 (stereo unspecified) | > 200 | > 100 |  |
| CCNc1ncnc2c1ncn2C1OC(CO)CC1F (stereo unspecified) | > 224 | > 224 |  |
| N#CC12COC3(CCCCC3C1(C#N)C#N)OC2=N (stereo unspecified) | > 200 | 3.98 |  |
| O=C(CCc1cccc(O)c1)NCCCNC(=O)CCc1cccc(O)c1 | > 200 | > 200 |  |
| C[N+](C)([O-])Cc1cccc(NC(=O)c2ccc(C(=O)Nc3cccc(C[N+](C)(C)[O-])c3)cc2)c1 | > 200 | > 200 |  |
| CCOC(=O)N1CC2OC(n3cc(C)c(=O)[nH]c3=O)CC2O1 (stereo unspecified) | > 200 | > 200 |  |
| COC(=O)c1c2c(cc3c1CC1(Cc4cc5c(cc4C1)CCC5)C3)CCC2 | > 200 | > 200 |  |
| CC1OC(OCC2OC(Oc3c(-c4ccc(O)cc4)oc4cc(OC5OC(C)C(O)C(O)C5O)cc(O)c4c3=O)C(O)C(O)C2O)C(O)C(O)C1O (stereo unspecified) |  |  | active |
| Cn1ncc(NCCn2cnc3c2c(=O)n(C)c(=O)n3C)c(Cl)c1=O | > 200 | > 200 |  |
| Cc1cc(C#N)c(Nc2ccccc2[N+](=O)[O-])s1 | > 200 | 42.7 |  |
| CCN(CC)CCOc1ccc(/C=C(\C#N)c2ccc(N(CC)CC)cc2)cc1 | > 200 | 0.891 |  |
| O=C1N=CN=C2C=CC(Cl)=C(I)C12 (stereo unspecified) | > 85.1 | > 85.1 |  |
| O=C1C2Cc3ccccc3CN2C(=O)N1CN1CCN(CN2C(=O)C3Cc4ccccc4CN3C2=O)CC1 (stereo unspecified) | > 10 | > 10 |  |
| O=[N+]([O-])c1ccc(OCCC[P+](c2ccccc2)(c2ccccc2)c2ccccc2)c(Cl)c1 | > 200 | 1.7 |  |
| C[N+]12C=CC=C1C(N1CCCC1)c1sc(-c3ccc(Cl)cc3)cc12 (stereo unspecified) | > 200 | 12.9 |  |

| SMILES | EC50 [µM] | IC50 [µM] | outcome |
| --- | --- | --- | --- |
| CN(C)c1ccc(/C=C2\C(=O)Nc3ccccc32)cc1 | > 10.2 | > 10.2 |  |
| O=C1OCCCCOC(=O)c2ccccc2SSc2ccccc21 | > 200 | > 200 |  |
| OC(c1ccc(F)cc1)C(F)(F)c1nc2ccccc2o1 (stereo unspecified) | > 200 | > 200 |  |
| CC1(C)OC(=O)C(C#N)=C1/C=C\c1ccco1 | > 1100 | > 1100 |  |
| O=C1OC(c2ccccc2)(c2ccccc2)c2ccsc21 | > 200 | 69.2 |  |
| Cc1ccc(C(=O)O)cc1NC(=O)c1cc(/C=C/c2ccccc2)[nH]c(=S)n1 | > 240 | > 240 |  |
| Cc1nsnc1CCO | > 1740 | > 1740 |  |
| CC(=O)Nc1ccc2c(C)c3c(nc2n1)[nH]c1ccccc13 | > 200 | 25.7 |  |
| CC(C)(C)NC(=O)CCC(=O)O | > 200 | 110 |  |
| Cc1ccccc1-n1c(N)c(-c2nc3ccccc3[nH]2)sc1=S | > 4.27 | > 4.27 |  |
| Nc1nccc(NCC2(CO)CCC2)n1 | > 200 | > 200 |  |
| CC(=O)Nc1ncc([N+](=O)[O-])s1 | > 200 | > 200 |  |
| Clc1ccc(SSc2ccc(Cl)cc2Cl)c(Cl)c1 | > 200 | 6.76 |  |
| CC1C2Cc3ccc(O)cc3C1(C)CCN2CCC(=O)c1ccccc1 (stereo unspecified) | > 200 | 27.5 |  |
| C(=C/[PH+](c1ccccc1)c1ccccc1)/[PH+](c1ccccc1)c1ccccc1.C(=C/[PH+](c1ccccc1)c1ccccc1)/[PH+](c1ccccc1)c1ccccc1.C(=C/[PH+](c1ccccc1)c1ccccc1)/[PH+](c1ccccc1)c1ccccc1.[Pt] | > 5.25 | 3.24 |  |
| C=CC[P+](CC=C)(c1ccccc1)c1ccccc1 | > 200 | 1.91 |  |
| Clc1cnnc2nc[nH]c12 | > 1150 | 135 |  |
| CN(C)CC1CN=C(NC(=O)Nc2ccccc2)O1 (stereo unspecified) | > 200 | > 200 |  |
| CC1CC(C(=O)CC2CC(=O)NC(=O)C2)C(=O)[C@@H](C)C1 (stereo partly specified) |  |  | inactive |
